This note sets out measurements from patent US8822517B2, “Arylosulfonamides for the treatment of CNS diseases” (Adamed SP. Z O.O., priority 2010, dated 2014).

One assay concerns the target T1, muscarinic M3 receptor (Homo sapiens, UniProt P20309).
T1 construct: expressed in transfected cells; host or cells: CHO cells
Kind of assay: Binding assay M3 (h), [3H]4-DAMP, CHO cells. The following applies: read-out: M3 [%]. As for the experimental part: (§1) The specific ligand binding to the receptors is defined as the difference between the total binding and the nonspecific binding determined in the presence of an excess of so unlabelled ligand.
(§2) The specific Ligand binding to the receptor is defined as the difference between total and non-specific binding determined in the presence of an excess of unlabelled ligand. The compounds were tested at a concentration of 1×10^−6 M, and scintillation counting was the method of detection of ligand binding.

Assay [1] has as its target serotoninergic 5-HT2A receptor (Homo sapiens, UniProt P28223). The experiment in a line: Binding assay 5-HT2A (h), [3H]ketanserin, HEK-293 cells. Details: expressed in transfected cells; host or cells: HEK-293 cells. The note with it: read-out: 5-HT2A. In short, it runs like this: (§3)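 At 1×10^−6 M, compounds were assessed for their effect on specific radioligand binding, computed as total less nonspecific binding (excess unlabelled ligand present).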

The target in assay [2] is histaminergic H1 receptor (Homo sapiens, UniProt P35367). The experiment in a line: Binding assay H1 (h), [3H]pyrilamine, HEK-293 cells. The note with it: read-out: H1 [%]. More on the design: expressed in transfected cells; host or cells: HEK-293 cells. As for the experimental part: as §1, §2
For a further assay, the target named is dopaminergic D2 receptor (Homo sapiens, UniProt P14416). The experiment in a line: Binding assay D2S (h), [3H]methyl-spiperone, HEK-293 cells. Details: expressed in transfected cells; host or cells: HEK-293 cells. The note with it: read-out: D2 [%]. In short, it runs like this:
as §3

The next assay has as its system sigma σ receptor. Kind of assay: Binding assay σ (non-selective), [3H]DTG, rat cerebral cortex. The following applies: percent inhibition of control specific binding; compounds tested at 1×10^−6 M. As for the experimental part: as §1, §2
The next assay has as its system adrenergic α1 receptor. Kind of assay: Binding assay α1 (non-selective), [3H]prazosin, rat cerebral cortex. The note with it: percent inhibition of control specific binding; compounds tested at 1×10^−6 M. In a few lines:
as §3

Assay [3] concerns the target serotoninergic 5-HT7 receptor (Homo sapiens, UniProt P34969). Kind of assay: Binding assay 5-HT7 (h), [3H]LSD, CHO cells. Details: expressed in transfected cells; host or cells: CHO cells. The following applies: read-out: 5-HT7. In short, it runs like this:
as §3

In a further assay the target is dopaminergic D3 receptor (Homo sapiens, UniProt P35462). Kind of assay: Binding assay D3 (h), [3H]methyl-spiperone, CHO cells. More on the design: expressed in transfected cells; host or cells: CHO cells. The following applies: read-out: D3 [%]. In short, it runs like this: as §3
In assay [4] the target is T2, serotoninergic 5-HT1A receptor (Homo sapiens, UniProt P08908).
T2 sequence (P08908 1-422): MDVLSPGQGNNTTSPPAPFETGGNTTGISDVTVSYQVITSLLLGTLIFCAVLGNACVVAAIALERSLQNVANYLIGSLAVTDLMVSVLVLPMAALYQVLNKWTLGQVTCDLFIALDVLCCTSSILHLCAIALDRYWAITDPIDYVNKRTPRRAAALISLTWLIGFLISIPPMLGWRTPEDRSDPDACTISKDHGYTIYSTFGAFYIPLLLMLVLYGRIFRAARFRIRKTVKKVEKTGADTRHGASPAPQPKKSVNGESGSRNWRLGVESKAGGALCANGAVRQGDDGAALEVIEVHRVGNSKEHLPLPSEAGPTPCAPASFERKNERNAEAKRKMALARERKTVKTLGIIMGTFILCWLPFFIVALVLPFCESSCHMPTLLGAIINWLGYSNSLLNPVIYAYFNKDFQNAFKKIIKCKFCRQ
The experiment in a line: Binding assay 5-HT1A (h), [3H]8-OH-DPAT, HEK-293 cells. More on the design: expressed in transfected cells; host or cells: HEK-293 cells. The following applies: read-out: 5-HT1A. In short, it runs like this:
as §3

In the next assay the target is T3, adrenergic α2C receptor (Homo sapiens, UniProt P18825).
T3 sequence (P18825 1-462): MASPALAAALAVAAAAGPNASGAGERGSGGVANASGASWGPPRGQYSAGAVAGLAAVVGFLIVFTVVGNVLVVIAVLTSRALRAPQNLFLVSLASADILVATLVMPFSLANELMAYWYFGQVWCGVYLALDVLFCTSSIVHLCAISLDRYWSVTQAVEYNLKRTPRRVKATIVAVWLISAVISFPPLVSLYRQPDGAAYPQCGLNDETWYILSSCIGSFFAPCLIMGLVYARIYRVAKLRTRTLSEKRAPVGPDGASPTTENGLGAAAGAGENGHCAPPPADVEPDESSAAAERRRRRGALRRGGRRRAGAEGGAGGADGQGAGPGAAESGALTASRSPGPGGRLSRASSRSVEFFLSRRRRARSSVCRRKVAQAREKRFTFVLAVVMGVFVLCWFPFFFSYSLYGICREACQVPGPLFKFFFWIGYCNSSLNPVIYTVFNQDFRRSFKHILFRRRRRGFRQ
Kind of assay: Binding assay α2C (h), [3H]RX 821002, CHO cells. Details: expressed in transfected cells; host or cells: CHO cells. The following applies: read-out: α2C [%]. As for the experimental part:
as §1, §2

The target of assay [5] is serotoninergic 5-HT6 receptor (Homo sapiens, UniProt P50406). The experiment in a line: Binding assay 5-HT6 (h), [3H]LSD, CHO cells. More on the design: expressed in transfected cells; host or cells: CHO cells. The note with it: read-out: 5-HT6. In a few lines:
as §3

The target in assay [6] is T4, serotoninergic receptor 5-HT2C (Homo sapiens, UniProt P28335).
T4 construct: expressed in transfected cells; host or cells: HEK-293 cells
T4 sequence (P28335 33-458): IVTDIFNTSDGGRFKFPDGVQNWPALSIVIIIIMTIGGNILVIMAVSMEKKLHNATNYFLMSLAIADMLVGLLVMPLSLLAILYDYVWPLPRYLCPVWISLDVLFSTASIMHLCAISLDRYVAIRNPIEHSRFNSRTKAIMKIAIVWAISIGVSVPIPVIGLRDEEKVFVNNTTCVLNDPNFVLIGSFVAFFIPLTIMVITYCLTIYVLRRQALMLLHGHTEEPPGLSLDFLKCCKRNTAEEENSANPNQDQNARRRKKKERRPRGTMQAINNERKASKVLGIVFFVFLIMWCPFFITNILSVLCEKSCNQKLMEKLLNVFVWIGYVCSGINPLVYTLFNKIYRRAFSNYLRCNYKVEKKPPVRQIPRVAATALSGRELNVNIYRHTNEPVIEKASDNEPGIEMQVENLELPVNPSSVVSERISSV
The experiment in a line: Binding assay 5-HT2C (h), [3H]mesulergine, HEK-293 cells. The following applies: read-out: 5-HT2C [%]. As for the experimental part: as §1, §2

Assay [7] has as its target T5, serotonine transporter (SERT) receptor (Homo sapiens, UniProt P31645).
T5 construct: expressed in transfected cells; host or cells: CHO cells
Kind of assay: Binding assay SERT (h), [3H]imipramine, CHO cells. The following applies: read-out: SERT [%]. In a few lines: as §3

Chain of serotoninergic 5-HT7 receptor (P34969 whole entry): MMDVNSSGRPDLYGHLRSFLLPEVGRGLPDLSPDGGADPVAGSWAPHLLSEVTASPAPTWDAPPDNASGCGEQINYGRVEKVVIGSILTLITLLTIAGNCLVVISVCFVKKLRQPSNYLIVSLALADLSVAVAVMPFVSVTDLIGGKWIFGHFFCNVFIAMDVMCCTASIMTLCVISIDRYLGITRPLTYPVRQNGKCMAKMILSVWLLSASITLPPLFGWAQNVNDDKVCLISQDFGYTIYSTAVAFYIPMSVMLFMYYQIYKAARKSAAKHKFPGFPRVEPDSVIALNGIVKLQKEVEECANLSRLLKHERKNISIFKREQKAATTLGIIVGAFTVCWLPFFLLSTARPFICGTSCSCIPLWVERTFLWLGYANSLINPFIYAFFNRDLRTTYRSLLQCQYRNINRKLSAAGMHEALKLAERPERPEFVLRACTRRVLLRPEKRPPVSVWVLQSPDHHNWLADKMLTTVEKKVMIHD
Chain of dopaminergic D3 receptor (P35462 whole entry): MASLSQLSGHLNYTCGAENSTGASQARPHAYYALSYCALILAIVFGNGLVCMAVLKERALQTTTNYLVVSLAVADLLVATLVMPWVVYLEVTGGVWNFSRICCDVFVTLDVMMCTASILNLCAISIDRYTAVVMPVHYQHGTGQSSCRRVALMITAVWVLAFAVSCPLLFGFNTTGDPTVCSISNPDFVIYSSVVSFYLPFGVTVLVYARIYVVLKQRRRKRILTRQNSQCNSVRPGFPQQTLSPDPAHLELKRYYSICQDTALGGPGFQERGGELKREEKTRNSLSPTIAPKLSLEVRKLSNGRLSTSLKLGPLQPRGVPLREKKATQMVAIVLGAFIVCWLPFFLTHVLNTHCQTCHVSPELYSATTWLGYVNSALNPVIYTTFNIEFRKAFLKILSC
Chain of histaminergic H1 receptor (P35367 whole entry): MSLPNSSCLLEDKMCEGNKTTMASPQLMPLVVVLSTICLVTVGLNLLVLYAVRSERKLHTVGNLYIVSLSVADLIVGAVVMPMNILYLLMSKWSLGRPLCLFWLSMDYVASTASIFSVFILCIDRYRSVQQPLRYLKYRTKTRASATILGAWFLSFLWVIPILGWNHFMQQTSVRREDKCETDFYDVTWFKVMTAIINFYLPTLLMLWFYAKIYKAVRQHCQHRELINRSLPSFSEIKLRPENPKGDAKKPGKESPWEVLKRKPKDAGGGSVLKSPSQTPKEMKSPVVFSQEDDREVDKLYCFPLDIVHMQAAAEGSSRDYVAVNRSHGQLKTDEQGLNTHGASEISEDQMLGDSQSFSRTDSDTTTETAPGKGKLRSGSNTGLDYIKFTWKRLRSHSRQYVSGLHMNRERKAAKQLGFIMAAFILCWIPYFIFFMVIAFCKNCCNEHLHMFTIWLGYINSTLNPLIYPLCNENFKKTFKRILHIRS
Chain of serotoninergic 5-HT2A receptor (P28223 whole entry): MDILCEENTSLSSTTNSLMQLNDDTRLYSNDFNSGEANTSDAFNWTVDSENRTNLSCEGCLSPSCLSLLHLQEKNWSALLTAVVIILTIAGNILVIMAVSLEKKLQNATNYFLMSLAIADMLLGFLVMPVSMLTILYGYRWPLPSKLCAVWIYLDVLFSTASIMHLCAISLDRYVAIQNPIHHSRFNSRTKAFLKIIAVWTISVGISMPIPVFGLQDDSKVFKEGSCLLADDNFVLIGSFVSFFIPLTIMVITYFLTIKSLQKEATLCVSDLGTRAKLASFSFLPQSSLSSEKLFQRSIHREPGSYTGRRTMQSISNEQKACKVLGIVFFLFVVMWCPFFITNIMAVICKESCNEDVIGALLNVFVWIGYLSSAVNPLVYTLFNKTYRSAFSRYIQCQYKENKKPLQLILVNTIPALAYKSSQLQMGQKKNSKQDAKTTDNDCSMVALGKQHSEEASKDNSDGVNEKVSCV
Chain of dopaminergic D2 receptor (P14416 1-414 isoform P14416-2): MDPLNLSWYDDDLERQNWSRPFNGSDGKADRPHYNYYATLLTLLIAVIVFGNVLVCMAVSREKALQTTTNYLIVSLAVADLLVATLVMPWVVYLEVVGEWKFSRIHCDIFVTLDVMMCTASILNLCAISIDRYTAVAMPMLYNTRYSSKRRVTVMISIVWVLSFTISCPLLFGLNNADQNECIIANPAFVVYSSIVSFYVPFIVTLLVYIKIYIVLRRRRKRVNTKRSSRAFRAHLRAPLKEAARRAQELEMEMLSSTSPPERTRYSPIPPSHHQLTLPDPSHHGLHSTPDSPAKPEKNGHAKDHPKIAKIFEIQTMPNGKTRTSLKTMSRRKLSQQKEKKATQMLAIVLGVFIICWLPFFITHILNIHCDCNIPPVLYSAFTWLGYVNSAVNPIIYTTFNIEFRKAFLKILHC
Chain of serotoninergic 5-HT6 receptor (P50406 whole entry): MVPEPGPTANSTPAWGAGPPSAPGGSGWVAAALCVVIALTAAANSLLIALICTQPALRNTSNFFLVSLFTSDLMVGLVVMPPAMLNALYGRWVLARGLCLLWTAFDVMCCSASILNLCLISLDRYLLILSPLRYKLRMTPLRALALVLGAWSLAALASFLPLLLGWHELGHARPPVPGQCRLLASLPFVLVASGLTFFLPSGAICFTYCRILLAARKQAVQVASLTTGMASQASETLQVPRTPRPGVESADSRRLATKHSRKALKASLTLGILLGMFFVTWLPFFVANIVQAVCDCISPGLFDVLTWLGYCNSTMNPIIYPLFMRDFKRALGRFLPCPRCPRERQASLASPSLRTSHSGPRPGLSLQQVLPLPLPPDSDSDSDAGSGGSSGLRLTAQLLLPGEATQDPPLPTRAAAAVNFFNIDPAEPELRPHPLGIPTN
T1 sequence (P20309 whole entry): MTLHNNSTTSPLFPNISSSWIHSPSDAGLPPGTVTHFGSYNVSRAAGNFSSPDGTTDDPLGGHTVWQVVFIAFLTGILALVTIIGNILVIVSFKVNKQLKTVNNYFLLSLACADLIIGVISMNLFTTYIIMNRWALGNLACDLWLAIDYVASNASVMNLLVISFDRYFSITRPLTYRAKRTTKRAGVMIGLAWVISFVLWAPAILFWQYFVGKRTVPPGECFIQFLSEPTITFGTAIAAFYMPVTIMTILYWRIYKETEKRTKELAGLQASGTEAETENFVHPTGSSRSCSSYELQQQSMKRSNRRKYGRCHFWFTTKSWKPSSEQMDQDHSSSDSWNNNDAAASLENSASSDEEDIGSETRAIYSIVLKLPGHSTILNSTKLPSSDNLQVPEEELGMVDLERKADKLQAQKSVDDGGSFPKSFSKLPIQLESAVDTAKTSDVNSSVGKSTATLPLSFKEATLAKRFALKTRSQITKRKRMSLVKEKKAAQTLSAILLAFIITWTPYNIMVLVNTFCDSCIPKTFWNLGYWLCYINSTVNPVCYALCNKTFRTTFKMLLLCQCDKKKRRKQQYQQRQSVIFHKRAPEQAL
T5 sequence (P31645 whole entry): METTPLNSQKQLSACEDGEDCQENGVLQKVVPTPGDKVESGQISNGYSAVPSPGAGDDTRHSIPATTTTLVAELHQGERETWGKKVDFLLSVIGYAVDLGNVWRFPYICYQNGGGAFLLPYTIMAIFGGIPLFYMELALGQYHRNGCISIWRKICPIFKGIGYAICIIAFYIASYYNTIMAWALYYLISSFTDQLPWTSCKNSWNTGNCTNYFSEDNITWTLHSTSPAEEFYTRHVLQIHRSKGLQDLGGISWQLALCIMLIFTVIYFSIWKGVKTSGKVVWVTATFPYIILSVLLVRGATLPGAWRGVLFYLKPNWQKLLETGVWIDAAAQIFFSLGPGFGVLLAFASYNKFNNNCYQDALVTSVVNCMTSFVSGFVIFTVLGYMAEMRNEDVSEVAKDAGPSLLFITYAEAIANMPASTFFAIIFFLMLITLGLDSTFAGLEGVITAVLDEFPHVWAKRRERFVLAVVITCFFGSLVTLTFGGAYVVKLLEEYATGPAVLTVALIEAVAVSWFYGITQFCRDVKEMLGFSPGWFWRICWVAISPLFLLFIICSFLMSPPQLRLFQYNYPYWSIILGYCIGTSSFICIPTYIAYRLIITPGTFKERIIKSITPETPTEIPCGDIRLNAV

On to `O=c1[nH]c2cccc(N3CCN(CCCNS(=O)(=O)c4cccc(F)c4)CC3)c2[nH]1` [Compound 176, 3-Fluoro-N-[3-[4-(2-oxo-1,3-dihydrobenzimidazol-4-yl)piperazin-1-yl]propyl]benzenesulphonamide], for which the inhibition at 1 µM at muscarinic M3 receptor is 6%; in assay [1], 7%; in assay [2], 8%; on dopaminergic D2 receptor, 89%; in [3], 80%; on dopaminergic D3 receptor it was 95%. Besides, the inhibition at 1 µM was 97% in assay [4]; 44% on adrenergic α2C receptor; 29% in assay [5]; 9% in assay [6]; -3% in assay [7]. The “σ [%]” value in the assay on sigma σ receptor is on record as −25%. Also, the “α1 [%]” value in the assay on adrenergic α1 receptor is given as 77%.

On to `O=S(=O)(NCCCN1CCN(c2nsc3ccccc23)CC1)c1ccc(Cl)s1` [Compound 196, N-[3-[4-(1,2-Benzothiazol-3-yl)piperazin-1-yl]propyl]-5-chloro-thiophene-2-sulphonamide], for which the inhibition at 1 µM was 18% on muscarinic M3 receptor; 102% in [1]; 93% in assay [2]; 98% on dopaminergic D2 receptor; 100% in [3]; 97% at dopaminergic D3 receptor. In addition, the inhibition at 1 µM amounted to 99% in assay [4]; 95% on adrenergic α2C receptor; 92% in [5]; 89% in assay [6]; 75% in [7]. Moreover, in the assay with sigma σ receptor, the “σ [%]” value was 66%. The “α1 [%]” value with adrenergic α1 receptor was determined as 93%.

Regarding `O=S(=O)(NCCCCN1CCN(c2nsc3ccccc23)CC1)c1cccc(O)c1` [Compound 231, N-[4-[4-(1,2-Benzothiazol-3-yl)piperazin-1-yl]butyl]-3-hydroxybenzenesulphonamide], the inhibition at 1 µM is 11% on muscarinic M3 receptor; 101% in assay [1]; 97% in assay [2]; 99% at dopaminergic D2 receptor; 99% in assay [3]; 97% at dopaminergic D3 receptor. In addition, the inhibition at 1 µM in assay [4] came out at 97%; at adrenergic α2C receptor, 99%; in assay [5] it was 95%; in assay [6], 87%; in assay [7], 59%. The “σ [%]” value in the assay with sigma σ receptor was 62%. In the assay on adrenergic α1 receptor, the “α1 [%]” value came out at 96%.

For the compound `O=S(=O)(NCCCCN1CCN(c2nsc3ccccc23)CC1)c1cccc2scnc12` [Compound 243, N-[4-[4-(1,2-Benzothiazol-3-yl)piperazin-1-yl]butyl]-1,3-benzothiazole-4-sulphonamide], the inhibition at 1 µM on muscarinic M3 receptor came to 10%; in assay [1], 100%; in assay [2], 93%; on dopaminergic D2 receptor, 100%; in assay [3] it was 99%; on dopaminergic D3 receptor, 93%. The inhibition at 1 µM in assay [4] came to 98%; on adrenergic α2C receptor, 96%; in [5], 73%; in assay [6], 81%; in assay [7], 63%. Also, the “σ [%]” value in the assay with sigma σ receptor is 29%. Moreover, the “α1 [%]” value in the assay on adrenergic α1 receptor turned out to be 97%.

With `O=S(=O)(NCCCCN1CCN(c2nsc3ccccc23)CC1)c1ccc2c(c1)OCO2` [Compound 245, N-[4-[4-(1,2-Benzothiazol-3-yl)piperazin-1-yl]butyl]-1,3-benzodioxole-5-sulphonamide], the inhibition at 1 µM came out at 25% at muscarinic M3 receptor; 99% in [1]; 98% in assay [2]; 97% on dopaminergic D2 receptor; 98% in assay [3]; 97% at dopaminergic D3 receptor. For the same compound, the inhibition at 1 µM in [4] amounted to 99%; on adrenergic α2C receptor, 101%; in assay [5], 82%; in assay [6], 72%; in assay [7] it was 38%. Further, the “σ [%]” value with sigma σ receptor is 52%. In the assay on adrenergic α1 receptor, the “α1 [%]” value turned out to be 96%.

In the case of `O=S(=O)(NCCCN1CCN(c2nsc3ccccc23)CC1)c1ccc(F)cc1` [Compound 248, N-[3-[4-(1,2-Benzothiazol-3-yl)piperazin-1-yl]propyl]-4-fluorobenzenesulphonamide], the inhibition at 1 µM stood at 13% on muscarinic M3 receptor; 101% in assay [1]; 97% in [2]; 99% on dopaminergic D2 receptor; 98% in assay [3]; 100% on dopaminergic D3 receptor. Besides, the inhibition at 1 µM was determined as 97% in assay [4]; 93% at adrenergic α2C receptor; 98% in assay [5]; 84% in assay [6]; 80% in assay [7]. In the assay on sigma σ receptor, the “σ [%]” value is 64%. The “α1 [%]” value in the assay with adrenergic α1 receptor was found to be 91%.

Take `O=S(=O)(NCCCN1CCN(c2nsc3ccccc23)CC1)c1ccc(F)c(F)c1` [Compound 249, N-[3-[4-(1,2-Benzothiazol-3-yl)piperazin-1-yl]propyl]-3,4-difluorobenzenesulphonamide]: the inhibition at 1 µM at muscarinic M3 receptor was found to be 9%; in assay [1], 101%; in assay [2], 97%; at dopaminergic D2 receptor, 98%; in [3] it was 100%; at dopaminergic D3 receptor it was 100%. The inhibition at 1 µM in [4] was found to be 100%; on adrenergic α2C receptor it was 98%; in assay [5], 101%; in [6] it was 89%; in assay [7], 77%. Also, in the assay on sigma σ receptor, the “σ [%]” value turned out to be 68%. In the assay with adrenergic α1 receptor, the “α1 [%]” value is given as 99%.
